Data published in patent US20260272850A1, “Cannabinoid Dosing Regime for Acne” (priority 2018, published 2026).
Read-outs that look alike come from different tables or passages of the source.

Tests used:
[1] = Healthy volunteer study of single and multiple-dose BTX 1503 5% Solution (BTX.2017.001): pharmacokinetics; type: in vivo, human (healthy volunteers); details: for Tmax: Day 1; for Cmax: topical or ocular, topical, Day 1, plasma CBD, read-out: mean Cmax after the first dose
Procedure: The pharmacokinetics (PK) of single and multiple-dose administration of BTX 1503 5% Solution were evaluated in a healthy volunteer study. In this study, BTX 1503 5% Solution was applied as a single dose either QD or BID (12 hrs apart) on Day 1 followed by a 6-day washout period, then either QD or BID for 14 days (Day 8 to Day 21). Five subjects were enrolled in each cohort and doses were escalated for each sequential cohort enrolled with the following doses. • Cohort 1: 37.5 mg CBD/day or 0.066 mg/cm^2/day applied as 1 mL of BTX 1503 5% (w/w) QD • Cohort 2: 75 mg CBD/day or 0.133 mg/cm^2/day applied as 1 mL BTX 1503 5% (w/w) BID • Cohort 3: 112.5 mg CBD/day or 0.199 mg/cm^2/day applied as 3 mL of BTX 1503 5% (w/w) QD • Cohort 4: 225 mg CBD/day or 0.398 mg/cm^2/day applied as 3 mL of BTX 1503 5% (w/w) BID Area of application assumed to be 565 cm^2 (i.e., on the face), which is reported by the European Union Scientific Committee on Consumer Safety (SCCS) to be half of the surface area for a female head (SCCS Notes of Guidance for the Testing of Cosmetic Substances and Their Safety Evaluation, 8th edition, 2012; Table 2).
Blood samples were taken for PK assessments on Day 1 (Baseline) at pre-dose (15 mins before dosing), 30, 60 and 90 mins and 2, 2.5, 3, 4, 6, 8 and 12 hrs, and 24 hrs after the first single dose. For participants that received BID dosing, samples were also taken at 30, 60 and 90 mins and 2, 2.5, 3, 4, 6, and 8 hrs after the second dose on Day 1.
During the multiple dose (14-day) phase, trough levels were obtained before the morning application on Day 15. On Day 21, blood samples were taken for PK assessments at pre-dose (15 mins before dosing), 30, 60 and 90 mins and 2, 2.5, 3, 4, 6, 8 and 12 hrs, 24 hrs and 48 hrs after the morning dose. For participants that received BID dosing, samples were also be taken at 30, 60 and 90 mins and 2, 2.5, 3, 4, 6, and 8 hrs after the second dose on Day 21. A sample was obtained on Day 23, 48 hrs after the last morning dose.

[2] = Franz-type diffusion cell skin permeation of CBD from BTX 1503 5% Solution; type: in vitro ADME; details: 48 hours; equivalent of ng/g of tissue
Procedure: Dermatomed skin from a single donor was mounted in a Franz-type diffusion cell (0.55 cm^2 receptor fluid exposure surface area) and dosed with 5 ul of 2-[3-methyl-6-(1-methylethenyl)-2-cyclohexen-1-yl]-5-pentyl-1,3-benzenediol (CBD), BTX 1503 5% Solution, formulated in an mixture of a volatile solvent (hexylmethyldisiloxane/polymethylsiloxane—93% w/w), and residual solvent (arlamol E—2% w/w) at a concentration of 5.0% (w/w; 35.5 mg/ml). Following dosing, receptor phase samples were collected at 4, 10, 24 and 48 hours; after which the study was terminated.
The residual formulation was removed by tape stripping and the epidermis and dermis separated by blunt dissection. The levels of CBD in the epidermis, dermis, and receptor fluid samples were then analyzed using a bioanalytical method with LC-MS/MS detection.

rats = details: injected; cited from earlier work
[3] = Open-label study in patients with acne vulgaris: study drug (CBD) plasma levels; type: in vivo, human; details: throughout the study, 225 mg CBD/day topical
From the text: Subjects returned to the clinic on Day 14 for vital signs, cutaneous tolerability assessments, and a blood draw for study drug plasma levels. Subjects were also queried for adverse events (AEs) and changes in concomitant medications. Diaries and study drug were returned and reviewed for compliance. In addition, the subject applied their morning dose of study drug during the visit for the clinical site to confirm correct application techniques. Another 14 days of study drug were dispensed along with the diary for the last two weeks of study drug treatment. […]
Safety was the primary outcome measure. The safety outcomes were measured through assessment of: • AEs monitored from time of consent through the end of study. • Cutaneous tolerability (erythema, scaling, dryness, burning/stinging, and irritant/allergic contact dermatitis) collected at Baseline, Day 14, Day 28, and Day 35 and graded using the following scale: 0, None; 1, Slight; 2, Moderate; 3, Severe. • Vital signs (temperature, blood pressure, and pulse) obtained at Baseline, Day 14, Day 28 and Day 35. • Complete blood count (CBC), chemistry, and urinalysis at Baseline and at Day 28. Blood levels of study drug will be measured at Baseline and prior to dosing (trough level) on Day 14, Day 28, and Day 35. […]

[4] = target: human vanilloid receptor type 1 (VR1) (Homo sapiens, UniProt Q8NER1); details: in vitro; cited from earlier work
[5] = system: immortalized human sebocytes; details: cited from earlier work
skin of minipigs = assay: 28-day study in minipigs: dermal tolerability and exposure; type: in vivo; details: no observed effect in minipigs
Procedure: This dose level is well below that tested and shown to be well-tolerated in a 28-day study in minipigs. Specifically, the NOAEL for dermal tolerability of BTX 1503 5% (w/w) on the skin of minipigs was 3.0 mg/cm^2/day (150 mg/kg/day), which is ~7.5 times the daily dose delivered in this study. In addition, based on the ratio of the mean Cmax observed in the 28-day minipig study to the mean Cmax in the 3 mL BID cohort in the Phase 1 a healthy volunteer study, there was >300 times the level of CBD, with no observed effect, in the minipigs.

sensitized guinea-pigs = details: intravenous administration; cited from earlier work

Chain of human vanilloid receptor type 1 (VR1) (Q8NER1 whole entry): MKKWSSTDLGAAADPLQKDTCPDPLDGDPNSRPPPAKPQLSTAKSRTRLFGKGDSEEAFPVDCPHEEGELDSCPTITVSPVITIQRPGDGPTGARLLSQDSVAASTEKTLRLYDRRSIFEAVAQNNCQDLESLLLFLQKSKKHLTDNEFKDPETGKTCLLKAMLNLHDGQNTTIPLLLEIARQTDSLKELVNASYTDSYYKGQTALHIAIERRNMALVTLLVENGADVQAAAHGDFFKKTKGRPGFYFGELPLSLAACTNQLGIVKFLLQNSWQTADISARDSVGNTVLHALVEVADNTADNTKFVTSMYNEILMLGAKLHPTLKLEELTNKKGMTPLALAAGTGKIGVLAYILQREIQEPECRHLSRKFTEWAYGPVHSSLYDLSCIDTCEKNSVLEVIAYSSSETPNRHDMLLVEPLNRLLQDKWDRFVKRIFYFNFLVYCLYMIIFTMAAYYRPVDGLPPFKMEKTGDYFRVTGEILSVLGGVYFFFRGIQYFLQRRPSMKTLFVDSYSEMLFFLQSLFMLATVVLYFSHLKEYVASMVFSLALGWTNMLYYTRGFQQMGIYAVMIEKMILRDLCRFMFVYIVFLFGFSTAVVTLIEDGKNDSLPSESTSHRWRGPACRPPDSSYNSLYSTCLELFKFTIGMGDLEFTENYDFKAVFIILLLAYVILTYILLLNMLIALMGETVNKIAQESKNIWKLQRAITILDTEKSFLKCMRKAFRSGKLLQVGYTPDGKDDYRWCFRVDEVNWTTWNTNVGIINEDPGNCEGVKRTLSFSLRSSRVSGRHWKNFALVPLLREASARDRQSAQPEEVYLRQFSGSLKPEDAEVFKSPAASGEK

C=C(C)C1CCC(C)=CC1c1c(O)cc(CCCCC)cc1O (centres unmarked) [CBD, 2-[3-methyl-6-(1-methylethenyl)-2-cyclohexen-1-yl]-5-pentyl-1,3-benzenediol]
mean pre-dose level on Day 21 ([1]; Cohort 1): 0.545 ng/mL
mean pre-dose level on Day 21 ([1]; Cohort 2): 0.770 ng/mL
mean pre-dose level on Day 21 ([1]; Cohort 3): 0.715 ng/mL
mean pre-dose level on Day 21 ([1]; Cohort 4): 1.553 ng/mL
concentration at 15 study day ([1]; human, in vivo, 75 mg CBD/day, Cohort 2, 75 mg CBD/day, multiple dose phase, read-out: mean CBD trough level on Day 15): 0.781 ng/mL
concentration at 15 study day ([1]; human, in vivo, 112.5 mg CBD/day, Cohort 3, 112.5 mg CBD/day, multiple dose phase, read-out: mean CBD trough level on Day 15): 0.525 ng/mL
concentration at 15 study day ([1]; human, in vivo, 225 mg CBD/day, Cohort 4, 225 mg CBD/day, multiple dose phase, all subjects, read-out: mean CBD trough level on Day 15): 2.11 ng/mL
concentration at 15 study day ([1]; human, in vivo, 225 mg CBD/day, Cohort 4, one outlier, read-out: CBD trough level on Day 15, outlier subject): 5.99 ng/mL
concentration at 15 study day ([1]; human, in vivo, 225 mg CBD/day, Cohort 4, without the outlier subject, read-out: mean CBD trough level on Day 15): 1.16 ng/mL
Tmax ([1]; human, in vivo, after BID dosing): 18 to 20 h
Tmax ([1]; human, in vivo, after QD dosing): 12 h
concentration at 7 days ([1]; human, in vivo, all cohorts, study Day 8, seven days after initial dosing, read-out: Levels of CBD (below the limits of quantitation)): < 0.2 ng/mL
Cmax ([1]; human, in vivo, Cohort 1: 37.5 mg CBD/day, 1 mL BTX 1503 5% QD): 0.309 ng/mL
Cmax ([1]; human, in vivo, Cohort 2: 75 mg CBD/day, 1 mL BTX 1503 5% BID): 0.562 ng/mL
Cmax ([1]; human, in vivo, Cohort 3: 112.5 mg CBD/day, 3 mL BTX 1503 5% QD): 0.626 ng/mL
Cmax ([1]; human, in vivo, Cohort 4: 225 mg CBD/day, 3 mL BTX 1503 5% BID): 0.876 ng/mL
dermis concentration [2]: ~ 1,933 ng/mL
effect on cardiac inflammation (rats): attenuated cardiac inflammation
Study drug (CBD) plasma levels [3]: low
effect on VR1 [4]: stimulate
effects on sebocytes [5]: lipostatic, anti-proliferative, and anti-inflammatory effects
ratio of mean Cmax in 28-day minipig study to mean Cmax in 3 mL BID healthy volunteer cohort (skin of minipigs): > 300 times
effect on airway obstruction (sensitized guinea-pigs): reduced airway obstruction
